As usually defined, the IC50 is the concentration that gives 50% inhibition. Low readings indicate greater potency, high ones weaker potency.

For this assay, the target named is PIK3CG (human) (UniProt P48736). In words: Assessment of PIK3CG Kinase Activity.
PIK3CG (human), sequence (P48736 whole entry, looked up): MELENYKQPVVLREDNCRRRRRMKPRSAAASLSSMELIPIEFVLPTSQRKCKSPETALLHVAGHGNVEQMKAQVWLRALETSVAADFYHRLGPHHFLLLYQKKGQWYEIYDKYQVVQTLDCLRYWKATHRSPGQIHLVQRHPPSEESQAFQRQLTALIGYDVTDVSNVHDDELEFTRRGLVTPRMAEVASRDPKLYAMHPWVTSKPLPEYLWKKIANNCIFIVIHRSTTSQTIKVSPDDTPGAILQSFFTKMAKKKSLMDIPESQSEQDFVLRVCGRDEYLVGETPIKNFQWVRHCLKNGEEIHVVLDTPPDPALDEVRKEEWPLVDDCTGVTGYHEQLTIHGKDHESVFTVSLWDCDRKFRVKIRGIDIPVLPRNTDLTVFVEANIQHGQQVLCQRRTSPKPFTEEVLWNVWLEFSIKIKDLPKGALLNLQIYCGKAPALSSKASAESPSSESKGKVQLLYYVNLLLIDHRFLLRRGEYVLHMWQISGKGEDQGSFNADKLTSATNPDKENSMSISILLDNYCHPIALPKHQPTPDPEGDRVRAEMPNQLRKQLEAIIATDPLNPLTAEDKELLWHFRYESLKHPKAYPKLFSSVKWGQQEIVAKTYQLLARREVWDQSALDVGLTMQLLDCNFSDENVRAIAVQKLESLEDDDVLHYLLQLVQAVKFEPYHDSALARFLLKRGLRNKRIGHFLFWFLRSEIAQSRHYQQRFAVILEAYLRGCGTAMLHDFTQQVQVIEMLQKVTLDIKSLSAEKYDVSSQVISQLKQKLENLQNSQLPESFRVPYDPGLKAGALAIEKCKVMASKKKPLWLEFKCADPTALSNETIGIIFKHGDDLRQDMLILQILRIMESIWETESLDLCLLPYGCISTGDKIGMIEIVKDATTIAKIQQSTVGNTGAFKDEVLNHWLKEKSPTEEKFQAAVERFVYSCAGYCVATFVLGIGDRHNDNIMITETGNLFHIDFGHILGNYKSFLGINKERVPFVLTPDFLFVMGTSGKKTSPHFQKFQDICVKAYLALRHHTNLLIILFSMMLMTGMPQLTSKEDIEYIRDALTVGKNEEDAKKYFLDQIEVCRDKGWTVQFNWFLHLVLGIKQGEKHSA

With `CC(=O)Nc1nc2c(s1)-c1c(cnn1C1C=CCCC1)CC2` (stereo not drawn), the concentration for half-maximal inhibition (IC50) is less than 800 nM. For `CC(=O)Nc1nc2c(s1)-c1c(cnn1-c1ccc(C(=O)NCc3ccncc3)cc1)CC2` the value was less than 800 nM; for `CC(=O)Nc1nc2c(s1)-c1c(cnn1-c1ccccc1C)C2`, less than 800 nM. Consider `CC(=O)Nc1nc2c(s1)-c1c(cnn1C(N)=O)CC2`, for which the IC50 is less than 800 nM. For `CC(=O)Nc1nc2c(s1)-c1c(cnn1-c1ccccc1Br)CC2` the value was less than 800 nM. For `O=C(CO)Nc1nc2c(s1)-c1c(cnn1-c1ccccc1)CC2` the value was less than 800 nM; for `CC(=O)Nc1nc2c(s1)-c1c(cnn1-c1ccc(C(=O)NCCCC(N)=O)cc1Cl)CC2`, less than 800 nM; for `CC(=O)Nc1nc2c(s1)-c1c(cnn1-c1ccc(C(=O)Nc3nc4ccccc4[nH]3)cc1)CC2`, less than 800 nM. Compound `CC(=O)Nc1nc2c(s1)-c1c(cnn1-c1ccc(C(=O)NCCO)cc1)CC2` gave an IC50 of less than 800 nM. For the compound `CC(=O)Nc1nc2c(s1)-c1c(c(C(N)=O)nn1-c1ccccc1Cl)CC2`, the IC50 was less than 800 nM. For `CC(=O)Nc1nc2c(s1)-c1c(cnn1-c1ccc(C(=O)NCCCCCCN)cc1)CC2` the value was less than 800 nM; for `CC(=O)Nc1nc2c(s1)-c1c(cnn1-c1ccc(C(=O)N[C@H](Cc3cc4ccccc4[nH]3)C(N)=O)cc1Cl)CC2`, less than 800 nM; for `CC(=O)Nc1nc2c(s1)-c1c(c(C(C)C)nn1-c1ccc(C(=O)N[C@H]3CC[C@@H](N4CCCC4)CC3)cc1Cl)CC2`, less than 800 nM. For `CC(=O)Nc1nc2c(s1)-c1nc(N(C)C)ncc1CC2` the value was less than 800 nM. For `COc1cccc(-n2ncc3c2-c2sc(NC(C)=O)nc2CC3)c1` the value was less than 800 nM; for `CC(=O)Nc1nc2c(s1)-c1c(cnn1-c1ccc(C(=O)NCCCN3CCOCC3)cc1)CC2`, less than 800 nM; for `CC(=O)Nc1nc2c(s1)-c1nc(N(C)CCN3CCN(C)CC3)ncc1CC2`, less than 800 nM.

For the compound `C#CCNC(=O)Cc1ccc(-n2ncc3c2-c2sc(NC(C)=O)nc2CC3)cc1`, the half-inhibitory concentration (IC50) is less than 800 nM.

For `CC(=O)Nc1nc2c(s1)-c1c(cnn1-c1ccc(C(=O)N3CCC(NC(=O)Cc4ccccc4)CC3)cc1)CC2`, the 50% inhibitory concentration (IC50) was less than 800 nM. Under `CC(=O)Nc1nc2c(s1)-c1c(cnn1-c1ccc(C(F)(F)F)cc1)CC2` stands less than 800 nM.

On to `CC(=O)Nc1nc2c(s1)-c1nc(-c3c(Cl)cccc3Cl)ncc1CC2`, for which the IC50 is less than 800 nM. Turning to `CC(=O)Nc1nc2c(s1)-c1c(c(-c3ccco3)nn1-c1ccc(C(N)=O)cc1Cl)CC2`, the IC50 is less than 800 nM. `CC(=O)Nc1nc2c(s1)-c1c(cnn1-c1ccc(C(=O)N3CCC4(CCN(C)C4)C3)cc1)CC2` (stereo not drawn) returned an IC50 of less than 800 nM.

`CC(=O)Nc1nc2c(s1)-c1c(c(-c3ccccc3)nn1-c1ccccc1Cl)CC2` displayed an IC50 of less than 800 nM.

For the compound `CC(=O)Nc1nc2c(s1)-c1c(cnn1-c1c(Cl)cccc1Cl)CC2`, the IC50 was less than 800 nM. The compound `CC(=O)Nc1nc2c(s1)-c1c(cnn1-c1ccc(S(=O)(=O)N3CCCCC3)cc1)CC2` had a half-inhibitory concentration (IC50) of less than 800 nM.

As for `CC(=O)Nc1nc2c(s1)-c1cc(NC(=O)C(C)C)ccc1CC2`, the IC50 is less than 800 nM. For `CC(=O)Nc1nc2c(s1)-c1nc(-c3ccc(C(N)=O)cc3)ncc1CC2` the value was less than 800 nM; for `CC(=O)Nc1nc2c(s1)-c1c(cnn1-c1ccc(O)c(Cl)c1)CC2`, less than 800 nM. In the case of `CN(C)CCCC(=O)Nc1nc2c(s1)-c1c(c(-c3ccccc3)nn1-c1ccccc1Cl)CC2`, the IC50 is less than 800 nM. For the compound `CC(=O)Nc1nc2c(s1)-c1c(c(-c3cn(C)cn3)nn1-c1ccccc1C)CC2`, the IC50 was less than 800 nM.

On to `CC(=O)Nc1nc2c(s1)-c1c(c(-c3ccccc3)nn1-c1ccccc1Br)CC2`, for which the IC50 is less than 800 nM.

The compound `CC(=O)Nc1nc2c(s1)-c1c(c(-c3ccco3)nn1-c1ccccc1Cl)CC2` gave a half-inhibitory concentration (IC50) of less than 800 nM.

For the compound `CC(=O)Nc1nc2c(s1)-c1c(c(-c3ccoc3)nn1-c1ccccc1C)CC2`, the half-inhibitory concentration (IC50) was less than 800 nM. Under `CC(=O)Nc1nc2c(s1)-c1nc(N3CCCCC3)ncc1CC2` stands less than 800 nM.

In turn, `CC(=O)Nc1nc2c(s1)-c1c(cnn1-c1ccc(CC(=O)NCc3cnn(C)c3)cc1)CC2` registered a 50% inhibitory concentration (IC50) of less than 800 nM. For the compound `CCSC(=O)Nc1nc2c(s1)-c1c(cnn1-c1ccccc1)CC2`, the IC50 was less than 800 nM. Under `CC(=O)Nc1nc2c(s1)-c1c(cnn1-c1ccc(CC(=O)Nc3cc(O)[nH]n3)cc1)CC2` stands less than 800 nM. Compound `CNC(=O)Nc1nc2c(s1)-c1nc(-c3ccccc3C)ncc1CC2` had an IC50 of less than 800 nM. In the case of `CC(=O)Nc1nc2c(s1)-c1c(cnn1-c1ccc(C(=O)NCc3ccccc3C(N)=O)cc1)CC2`, the concentration for half-maximal inhibition (IC50) was less than 800 nM. For `CC(=O)Nc1nc2c(s1)-c1c(cnn1-c1ccc(C(=O)NCC(F)(F)F)cc1)CC2`, the half-inhibitory concentration (IC50) was less than 800 nM. Under `Nc1nc2c(s1)-c1c(cnn1-c1ccc([N+](=O)[O-])cc1)CC2` stands less than 800 nM. In the case of `CCN(CC)CC1CCCCN1C(=O)c1ccc(-n2ncc3c2-c2sc(NC(C)=O)nc2CC3)cc1` (stereo not drawn), the concentration for half-maximal inhibition (IC50) is less than 800 nM. Regarding `CC(=O)Nc1nc2c(s1)-c1c(cnn1-c1ccc(C(=O)N[C@H](CCCCN)C(N)=O)cc1Cl)CC2`, the half-maximal inhibitory concentration (IC50) was less than 800 nM. Under `CC(=O)Nc1nc2c(s1)-c1nc(N3CCCC(CNC(=O)OC(C)(C)C)C3)ncc1CC2` (stereo not drawn) stands less than 800 nM; under `CC(=O)Nc1nc2c(s1)-c1c(cnn1-c1ccc(S(=O)(=O)N(C)C)cc1)CC2`, less than 800 nM; under `CC(=O)Nc1nc2c(s1)-c1c(c(NC(=O)Oc3ccccc3)nn1-c1ccccc1Cl)CC2`, less than 800 nM. Under `COc1ccc(-n2ncc3c2-c2sc(NC(C)=O)nc2CC3)cc1` stands less than 800 nM. `CC(=O)Nc1nc2c(s1)-c1c(cnn1-c1ccc(CC(=O)N3CCS(=O)(=O)CC3)cc1)CC2` registered an IC50 of less than 800 nM. For `CC(=O)Nc1nc2c(s1)-c1nc(N3CCCC(C)(C)C3)ncc1CC2` the value was less than 800 nM.

In turn, `CC(=O)Nc1nc2c(s1)-c1c(c(N)nn1-c1ccccc1Cl)CC2` came in with an IC50 of less than 800 nM. On to `NCC#CCNC(=O)Nc1nc2c(s1)-c1c(cnn1-c1ccccc1)CC2`, for which the IC50 is less than 800 nM.

Turning to `CCNC(=O)Nc1nc2c(s1)-c1c(cnn1-c1ccccc1)CC2`, the half-maximal inhibitory concentration (IC50) is less than 800 nM. Under `CC(=O)Nc1nc2c(s1)-c1c(c(C(=O)N[C@@H]3CCOC3=O)nn1-c1ccccc1)CC2` stands less than 800 nM; under `CC(=O)Nc1nc2c(s1)-c1c(cnn1-c1ccc(Cl)cc1Cl)CC2`, less than 800 nM. For `CC(=O)Nc1nc2c(s1)-c1c(c(NC(=O)OC(C)C)nn1-c1ccccc1Cl)CC2` the value was less than 800 nM; for `CC(=O)Nc1nc2c(s1)-c1c(cnn1-c1ccc(C(=O)N[C@H]3CCc4nc(N)sc4C3)cc1Cl)CC2`, less than 800 nM; for `CC(=O)Nc1nc2c(s1)-c1c(cnn1-c1ccc(C(=O)N3CCN(NC(=O)c4ccc(F)cc4)CC3)cc1)CC2`, less than 800 nM. For `CC(=O)Nc1nc2c(s1)-c1c(cnn1-c1cc(Cl)ccc1Cl)CC2` the value was less than 800 nM; for `CC(=O)Nc1nc2c(s1)-c1nn(C(N)=O)cc1CC2`, less than 800 nM; for `COc1ccc(-n2ncc3c2-c2sc(NC(C)=O)nc2CCC3)cc1`, less than 800 nM. `CC(=O)Nc1nc2c(s1)-c1nc(NC3CCN(C)CC3)ncc1CC2` yielded an IC50 of less than 800 nM. As to `CC(=O)Nc1nc2c(s1)-c1c(c(-c3ccco3)nn1-c1ccc(C(=O)N[C@H]3CC[C@@H](N4CCCC4)CC3)cc1Cl)CC2`, the concentration for half-maximal inhibition (IC50) is less than 800 nM.

The record behind these values is the Kinase Knowledgebase extract (Sharma et al. 2016).
